In patent US12337003B2, “Pharmaceutical compositions for combination therapy” (Intercept Pharmaceuticals, Inc., priority 2015, dated 2025):

Key:
[1] = tested on: fibrosis induced by common bile duct ligation in mice; assay: Bile duct ligation (BDL) model, Sirius-red staining of liver sections; assay type: in vivo, C57BL/6 mice; conditions: mean ± SD, OCA 5 mg/kg and/or atorvastatin 10 mg/kg orally once daily day 0 to day 6
Experimental: This experiment was performed to evaluate the effects of OCA and atorvastatin alone, and in combination, on fibrosis induced by common bile duct ligation in mice.
Male C57BL/6 mice (6 weeks of age) were obtained from Japan SLC. The animals were maintained in a specific pathogen free facility under controlled conditions of temperature (23±2° C.), humidity (45±10%), lighting (12-hour artificial light and dark cycles; light from 8:00 to 20:00), and air exchange (air exchange rate: more than 40 times/hour). A high pressure (20±4 Pa) was maintained in the experimental room to prevent contamination of the facility. The animals were housed in KN-600 (Natsume Seisakusho, Japan) with a maximum of 6 mice per cage. […]
Viability, clinical signs and behavior were monitored daily. Body weight was recorded daily during the treatment period. Food consumption was measured twice weekly per cage during the treatment period. […]
To visualize collagen deposition, Bouin's-fixed left lateral liver sections were stained using picro-Sirius red solution (Waldeck, Germany). For quantitative analysis of the fibrosis area, bright field images of Sirius red-stained sections were captured around the central vein using a digital camera (DFC295; Leica, Germany) at 100-fold magnification, and the positive areas in 5 fields/section were measured using ImageJ software (National Institute of Health, USA). […]

[2] = tested on: APOE*3Leiden.CETP transgenic mice on high fat diet; assay: Diet induced NASH in APOE*3Leiden.CETP mice, hepatic inflammation score; assay type: in vivo; conditions: for Inflammation (# of inflammatory cell foci): in high fat diet
Experimental: (§1) This experiment was performed to evaluate the effects of OCA and fenofibrate, alone or in combination, on the development of diet induced NASH and liver fibrosis in APOE*3Leiden.CETP transgenic mice. Hepatic gene expression profiling and subsequent pathway analysis were performed to determine whether the combination regulates novel genes not regulated by either monotherapy treatment, and/or more strongly regulates genes also impacted by the monotherapy.
Male APOE*3Leiden.CETP transgenic mice (9-21 weeks old) were obtained and housed 2-5 mice per cage. The mice were fed a high fat diet containing 24% lard and 1% (w/w) cholesterol. The run in period was 15 weeks on the high fat diet. At week 16, mice were matched based on age, body weight, plasma cholesterol and triglycerides after 4 h fasting.
• Mice (n=15) were fed a high fat diet during the run in weeks 0 to 14. Group 2: HFC control group • Mice (n=15) were fed a high fat diet from weeks 0 to 24. Group 3: HFC+OCA • Mice (n=15) were fed a high fat diet supplemented with OCA at a dose of 10 mg/kg once daily from week 16 to 24. Group 4: HFC+low dose fenofibrate • Mice (n=15) were fed a high fat diet supplemented with fenofibrate at a dose of 10 mg/kg once daily from week 16 to 24. Group 5: HFC+high dose fenofibrate • Mice (n=15) were fed a high fat diet supplemented with fenofibrate at a dose of 40 mg/kg once daily from week 16 to 24. Group 6: HFC+OCA+low dose fenofibrate • Mice (n=15) were fed a high fat diet supplemented with OCA at a dose of 10 mg/kg once daily and fenofibrate at a dose of 10 mg/kg once daily from week 16 to 24. Group 7: HFC+OCA+high dose fenofibrate • Mice (n=15) were fed a high fat diet supplemented with OCA at a dose of 10 mg/kg once daily and fenofibrate at a dose of 40 mg/kg once daily from week 16 to 24. Group 8: Chow control group • Mice (n=8) were feed chow from week 0 to 24. Study Design
(§2) Mice were fed a high fat chow (HFC) diet for […]. After 15 weeks on the HFC diet, HFC mice were matched into 7 groups based on age, body weight, plasma cholesterol and triglycerides after 4 h fasting. Mice were treated with of OCA and fenofibrate, alone or in combination beginning at week 15 and sacrificed at week 25 in an unfasted state. One week before sacrifice, mice were labeled with D20, by i.p. injection of a bolus of D20 and subsequent addition of 4% D20 to the drinking water. Plasma (EDTA) was obtained by heart puncture and stored at −70° C. The liver was weighed and 4 pieces of liver were isolated: 1 piece (medial lobe) was fixed in 10% formalin (for NASH and fibrosis histology) and 3 pieces (sinister lobe) were snap-frozen in liquid N2 and stored individually at −70° C.
Inflammation is a key feature of NASH. Inflammation was categorized according to the procedure by Liang et al., PlosOne 2014 Dec. 9(12) and scored by quantitatively analyzing the number of inflammatory cells aggregates. In particular, the level of inflammation was evaluated by counting the number of inflammatory foci per field using a 100× magnification (view size of 3.1 mm2; average of five different fields).

[3] = tested on: leukocyte extravasation signaling; assay: Hepatic gene expression profiling (RNA sequencing, pathway analysis) in APOE*3Leiden.CETP mice; assay type: in vivo
Experimental: as §1, §2
Nucleic acid extraction was performed as described previously in detail (Verschuren et al., 2014). Briefly, total RNA was extracted from individual liver samples using glass beads and RNAzol (Campro Scientific, Veenendaal, The Netherlands). RNA concentration and quality was determined using the Fragment Analyzer (Advanced Analytical Technologies, USA) and the RNA 6000 Nano Lab-on-a-Chip kit and a Bioanalyzer 2100 (Agilent Technologies, Amstelveen, The Netherlands). All samples met the quality requirements and were used in the RNA sequencing procedure.
The NEBNext Ultra Directional RNA library Prep Kit for Illumina was used to process the samples. The sample preparation was performed according to the protocol “NEBNext Ultra Directional RNA Library Prep Kit for Illumina” (NEB #E7420S/L). Briefly, mRNA was isolated from total RNA using oligo-dT magnetic beads. After fragmentation of the mRNA, a cDNA synthesis was performed. This was used for ligation of sequencing adapters and PCR amplification of the resulting product. The quality and yield after sample preparation was measured with the Fragment Analyzer (Advanced Analytical Technologies, USA). The size of the resulting products was consistent with the expected size distribution (a broad peak between 300-500 bp).
Clustering and DNA sequencing using the Illumina […] was performed according manufacturer's protocols. Data was generated using single-end read sequencing protocol obtaining approx. 15 million reads per sample and 75 bp per read. Image analysis, base calling, and quality check was performed with the Illumina data analysis pipeline RTA v2.4.11 to generate the raw data (*.fastq-files).
The reads were mapped to the reference sequence Mus musculus GRCm38.p3 using a short read aligner based on Burrows-Wheeler Transform. The default mismatch rate of 2% (3 mismatches in a read of 150 bases) was used. Based on the mapped read locations in the alignment files (*.bam-files) the frequency of how often a read was mapped on a transcript was determined. The counts were saved to count-files, which served as input for downstream mRNA-seq differential expression analysis. The read counts were loaded into the DESeq package, a statistical package within the R platform. […]

[4] = high dose fenofibrate 40 mg/kg, alone or with OCA 10 mg/kg

| SMILES | Sirius red-positive area (%) [1] | Inflammation (# of inflammatory cell foci) ([2]; OCA 10 mg/kg and/or low dose fenofibrate 10 mg/kg) | reduction in inflammation [2, 4] | Inflammation (# of inflammatory cell foci) [2, 4] | number of uniquely regulated genes ([3]; Venn diagram, OCA 10 mg/kg, fenofibrate 10 mg/kg, combination) | enrichment analysis of canonical (inflammatory) pathways ([3]; liver mRNA, OCA 10 mg/kg and/or low dose fenofibrate vs HFC) |
| --- | --- | --- | --- | --- | --- | --- |
| CC(C)c1c(C(=O)Nc2ccccc2)c(-c2ccccc2)c(-c2ccc(F)cc2)n1CC[C@@H](O)C[C@@H](O)CC(=O)O [ATO, atorvastatin, reference compound] | 2.31 ± 0.63% |  |  |  |  |  |
| CC(C)OC(=O)C(C)(C)Oc1ccc(C(=O)c2ccc(Cl)cc2)cc1 [fenofibrate] |  | 22.0 ± 15.6 | −74% | 7.1 ± 5.9 | 92 | no effect |
